# Assay results from ChEMBL document CHEMBL1144543, “QSAR study of anticoccidial activity for diverse chemical compounds: prediction and experimental assay of trans-2-(2-nitrovinyl)furan” (2007).
# How the values were obtained:
# Format in all cases: functional
# Gallus gallus [1] = species: Gallus gallus; experiment: Increase in weight of Eimeria tenella infected Chick at 2 ug/ml relative to control
# Gallus gallus [2] = species: Gallus gallus; experiment: Increase in weight of Eimeria tenella infected Chick at 8 ug/ml relative to control
# Gallus gallus [3] = species: Gallus gallus; experiment: Increase in weight of Eimeria tenella infected Chick at 4 ug/ml relative to control
# Eimeria tenella [4] = experiment: Anticococcidal activity against Eimeria tenella in Chick assessed as reduction in lesion at 2 ug/ml relative to control; set-up: scale not given: the % may be the effect or the level left
# Eimeria tenella [5] = experiment: Anticococcidal activity against Eimeria tenella in Chick assessed as reduction in lesion at 4 ug/ml relative to control; set-up: scale not given: the % may be the effect or the level left
# Eimeria tenella [6] = experiment: Anticococcidal activity against Eimeria tenella in Chick assessed as reduction in lesion at 8 ug/ml relative to control; set-up: scale not given: the % may be the effect or the level left
# Gallus gallus [7] = species: Gallus gallus; experiment: Increase in weight of Eimeria tenella infected Chick at 125 ug/ml relative to control
# Eimeria tenella [8] = experiment: Anticococcidal activity against Eimeria tenella in Chick assessed as reduction in lesion at 125 ug/ml relative to control; set-up: scale not given: the % may be the effect or the level left
SMILES,Activity (Gallus gallus [1]) [%],Activity (Gallus gallus [2]) [%],Activity (Gallus gallus [3]) [%],Activity (Eimeria tenella [4]) [%],Activity (Eimeria tenella [5]) [%],Activity (Eimeria tenella [6]) [%],Activity (Gallus gallus [7]) [%],Activity (Eimeria tenella [8]) [%]
O=[N+]([O-])/C=C/c1ccco1,80.08,83.86,86.78,58.57,67.14,72.86,–,–
CCCc1ncc(C[n+]2ccccc2C)c(N)n1.Cl.[Cl-] [AMPROLIUM],–,–,–,–,–,–,75.19,60
